Results: paper PMC10952572, “Improved PIEZO1 agonism through 4‐benzoic acid modification of Yoda1” (British Journal of Pharmacology, 2023)

Target: T1, mPIEZO1 (Mus musculus, UniProt E2JF22)
T1 construct: expressed in transfected cells
Experiment: Automated patch clamp (SyncroPatch 384) on mPIEZO1-TREx cells
Assay type: cell-based
Settings: for Effect on M-Stim-evoked currents: mPIEZO1-TREx cells, −80 mV; for Cells responding to activation: mPIEZO1-TREx, 10 μM KC157, 10 μM Yoda1, 5 μM KC159
Description: For automated patch clamp, cells were cultured and harvested according to Nanion's standard cell culture protocol (Obergrussberger et al., [2014]). hPIEZO1‐TREx cells were induced to express PIEZO1 by incubation with 0.5 μg·ml^−1 tetracycline 24 h prior to experiments. Whole‐cell patch‐clamp recordings were conducted on HEK‐TREx, hPIEZO1‐TREx and mPIEZO1‐TREx cells according to Nanion's standard procedure for the SyncroPatch 384, using medium resistance (4–5 MΩ) chips (Obergrussberger et al., [2018]). Cells were held at −80 mV for the duration of the experiment. The channel was activated by mechanical forces in the absence and presence of the agonists. To stimulate PIEZO1 channels mechanically (mechanical stimulation [M‐Stim]), we dispensed 20 μl of solution (either reference or agonist) locally to the cell at a pipetting speed of 110 μl·s^−1 in synchrony with a triggered recording of the current response at the holding potential. The internal solution contained 110 mM KF, 10 mM KCl, 10 mM NaCl, 10 mM HEPES and 10 mM EGTA, pH adjusted to 7.2 with KOH, and the external solution contained 140 mM NaCl, 4 mM KCl, 2 mM CaCl2, 1 mM MgCl2, 5 mM glucose, 10 mM HEPES, pH adjusted to 7.4 with NaOH, and 0.1% DMSO to match the DMSO concentration of the compound solutions. For PIEZO1 stimulation, KC159, KC157 or Yoda1 was applied directly onto the cells via a pipette application. One chip of the SyncroPatch 384 is equipped with 384 wells served by 384 robotic pipettes and connected to 384 individual amplifiers, allowing us to test 384 distinct cells in one experiment. We tested the effect of each specified analogue on mPIEZO1‐, hPIEZO1‐ and untransfected HEK‐TREx cells in parallel and in comparison to mechanical and Yoda1 stimulation. To estimate the EC50 values, four concentrations of each agonist were tested per cell line in one chip, with each cell receiving single concentrations, and the concentration–response curve was calculated across the whole chip (384 cells). Only cells with seal resistance >0.3 GΩ, series resistance <20 MΩ and cell capacitance >5 and <40 pF were used for analysis.
DataControl 384 (Nanion Technologies GmbH), Prism 9 (GraphPad) and OriginPro 2020 (OriginLab) were used for all analysis of automated patch‐clamp data. For manual and automated patch‐clamp data, n represents the number of cells recorded from successfully in each experimental condition, sampled from two to six batches of cells or 384‐well chips in automated patch clamp. For manual patch‐clamp experiments, each cell/patch recording (n) is considered as an independent experiment because each was made independently at a separate time, using a separate coverslip of cells and using a separate patch pipette. In some instances, more than one such independent recording was made from the same batch of cultured or transfected cells. These n values are considered as independent. Each cell was studied alone and from a separate coverslip in the case for manual patch clamp. To estimate the EC50 values of the agonists in automated patch‐clamp studies, the peak current in the presence of the agonist was normalised to the peak current in the presence of the reference solution. Single‐point concentration–response curves were fitted with a standard Hill equation to estimate EC50 values. P < 0.05 was deemed significant. For automated patch‐clamp experiments, we included some data for n < 5 (Figure 7a,b). […] Such replicates are a feature of, and a rationale for, this automated technology, which is an innovation for the type of research shown here but already commonly used in the pharmaceutical industry for other ion channel studies to increase throughput and avoid waste from large volumes of independent cell cultures and minimise cost from expensive specially engineered plates. As a general strategy, our study used multiple independent technical approaches to address the same or similar questions. […]

T1 sequence (E2JF22 whole entry): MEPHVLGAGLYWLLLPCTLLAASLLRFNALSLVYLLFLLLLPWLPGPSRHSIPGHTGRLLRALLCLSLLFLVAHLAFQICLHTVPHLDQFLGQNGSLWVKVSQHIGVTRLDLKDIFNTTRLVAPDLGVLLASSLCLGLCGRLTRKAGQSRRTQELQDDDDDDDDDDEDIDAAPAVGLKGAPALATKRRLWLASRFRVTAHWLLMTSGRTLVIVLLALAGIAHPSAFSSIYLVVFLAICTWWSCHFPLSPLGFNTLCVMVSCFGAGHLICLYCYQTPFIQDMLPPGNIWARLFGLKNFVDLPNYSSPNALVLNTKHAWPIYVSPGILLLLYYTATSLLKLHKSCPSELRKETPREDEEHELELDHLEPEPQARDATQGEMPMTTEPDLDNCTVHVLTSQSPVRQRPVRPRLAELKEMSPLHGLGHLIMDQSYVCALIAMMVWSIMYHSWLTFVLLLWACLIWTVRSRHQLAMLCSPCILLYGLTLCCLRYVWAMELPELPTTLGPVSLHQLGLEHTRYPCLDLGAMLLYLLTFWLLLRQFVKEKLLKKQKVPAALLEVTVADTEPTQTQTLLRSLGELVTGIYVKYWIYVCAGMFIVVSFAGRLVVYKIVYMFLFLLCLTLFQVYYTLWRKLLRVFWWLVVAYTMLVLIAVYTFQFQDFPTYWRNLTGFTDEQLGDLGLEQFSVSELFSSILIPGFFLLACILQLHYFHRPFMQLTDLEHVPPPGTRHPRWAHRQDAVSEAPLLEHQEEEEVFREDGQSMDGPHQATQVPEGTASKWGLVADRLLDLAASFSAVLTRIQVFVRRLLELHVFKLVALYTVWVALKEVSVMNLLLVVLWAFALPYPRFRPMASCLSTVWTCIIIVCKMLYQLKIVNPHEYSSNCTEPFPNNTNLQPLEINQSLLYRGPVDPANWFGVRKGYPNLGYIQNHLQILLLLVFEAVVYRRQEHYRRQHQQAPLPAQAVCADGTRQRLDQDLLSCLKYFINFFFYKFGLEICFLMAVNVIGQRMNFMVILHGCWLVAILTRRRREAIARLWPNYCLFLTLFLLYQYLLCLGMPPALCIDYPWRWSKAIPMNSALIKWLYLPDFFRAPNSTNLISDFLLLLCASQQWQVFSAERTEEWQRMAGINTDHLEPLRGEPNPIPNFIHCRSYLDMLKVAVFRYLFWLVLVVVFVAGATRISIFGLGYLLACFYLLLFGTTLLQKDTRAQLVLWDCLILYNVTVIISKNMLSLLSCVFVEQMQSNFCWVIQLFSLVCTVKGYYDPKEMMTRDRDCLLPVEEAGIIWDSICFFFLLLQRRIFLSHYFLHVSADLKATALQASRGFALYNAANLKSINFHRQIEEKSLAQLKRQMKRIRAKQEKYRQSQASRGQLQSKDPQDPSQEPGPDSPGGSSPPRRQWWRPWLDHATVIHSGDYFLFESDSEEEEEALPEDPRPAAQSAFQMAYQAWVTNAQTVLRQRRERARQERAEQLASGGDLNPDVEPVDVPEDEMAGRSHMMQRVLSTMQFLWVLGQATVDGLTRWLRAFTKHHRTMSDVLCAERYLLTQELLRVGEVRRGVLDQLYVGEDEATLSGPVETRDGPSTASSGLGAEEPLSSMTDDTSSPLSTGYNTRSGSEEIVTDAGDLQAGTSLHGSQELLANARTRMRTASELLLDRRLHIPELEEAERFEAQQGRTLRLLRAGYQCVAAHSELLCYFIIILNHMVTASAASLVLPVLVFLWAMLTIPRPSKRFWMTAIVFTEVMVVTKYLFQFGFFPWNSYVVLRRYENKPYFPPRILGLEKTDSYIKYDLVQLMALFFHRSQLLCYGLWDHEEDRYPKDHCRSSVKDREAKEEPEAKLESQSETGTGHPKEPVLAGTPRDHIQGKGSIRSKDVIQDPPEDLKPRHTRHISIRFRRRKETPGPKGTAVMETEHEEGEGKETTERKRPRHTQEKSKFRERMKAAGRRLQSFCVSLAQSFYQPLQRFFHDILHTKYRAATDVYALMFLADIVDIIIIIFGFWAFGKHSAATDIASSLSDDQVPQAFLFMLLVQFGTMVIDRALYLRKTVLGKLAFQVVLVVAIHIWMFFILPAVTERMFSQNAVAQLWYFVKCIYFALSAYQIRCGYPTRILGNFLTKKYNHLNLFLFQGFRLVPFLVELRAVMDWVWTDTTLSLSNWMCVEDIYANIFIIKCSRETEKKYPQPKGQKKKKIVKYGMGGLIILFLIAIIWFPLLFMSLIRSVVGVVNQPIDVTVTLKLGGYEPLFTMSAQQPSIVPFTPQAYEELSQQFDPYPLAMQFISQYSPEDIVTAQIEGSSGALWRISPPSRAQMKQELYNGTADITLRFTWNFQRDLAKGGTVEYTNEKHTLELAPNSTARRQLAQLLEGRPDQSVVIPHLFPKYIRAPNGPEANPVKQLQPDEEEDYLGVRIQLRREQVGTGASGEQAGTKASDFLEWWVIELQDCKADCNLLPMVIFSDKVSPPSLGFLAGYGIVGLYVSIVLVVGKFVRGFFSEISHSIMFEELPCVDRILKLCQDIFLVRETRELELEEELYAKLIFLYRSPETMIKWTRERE

Compound	Effect on M-Stim-evoked currents (10 μM)	Cells responding to activation	Sustained component of current as % of the peak current amplitude (10 μM, mPIEZO1 cells, mean ± SD)	EC50 (mouse PIEZO1, normalised peak current, maximum response not certain, read-out: EC50 (estimate))
O=C(O)c1ccccc1-c1nnc(SCc2c(Cl)cccc2Cl)s1 [KC157]	mostly fails to evoke responses	largely ineffective	–	–
O=C(O)c1ccc(-c2nnc(SCc3c(Cl)cccc3Cl)s2)cc1 [KC159]	greatly amplifies the currents	more cells to respond compared with Yoda1	26 ± 8%	~1.54 µM
